From patent US20130053330A1, “Fertilization Prediction and Promotion” (Karolinska Institutet Innovations AB, priority 2010, published 2013)
Peptide text beside a SMILES is read from it.

How the values were obtained:
[1] = system: G10 cells (Porcine aortic endothelial cells); assay: Chemotaxis (migration) assay in modified Boyden chamber, G10 cells; assay type: cell-based, pig; settings: for inhibition of VEGF-induced migration of G10 cells: 100 ng/ml in lower chamber, 4-6 h at 37° C.
Experimental: By using a proliferation and a migration (chemotaxis) assay the importance of HRG as well as HRG peptides was analyzed. The peptides used correspond to a fragment of full-length HRG containing 35 amino acids covering position 204 in the protein; the proline of native HRG in that specific position is changed to serine. The amino acid sequences are: […] (SEQ ID NO: 7, named HRGPro herein) and […] (SEQ ID NO: 8, named HRGSer herein); the peptides were produced and purchased from Innovagen, Lund, Sweden.
The assay was performed in a modified Boyden chamber using micropore nitrocellulose filters (8 μm thick, 8 μm pore) coated with type-1 collagen solution at 100 μg/ml (Vitrogen 100, Collagen Corp.). Cells (G10 and HEEC cells) were trypsinized and resuspended at a concentration of 5.5×10^5 cells/ml in serum-free culture medium containing 0.25% fetal calf serum (FCS). The cell suspension was placed in the upper chamber, and the serum-free medium containing 0.25% FCS and FGF-2 or VEGF, HRG or the HRGPro or HRGSer peptide, was placed below the filter in the lower chamber. As a positive control, medium containing 10% FCS was added to the lower chamber. After 4-6 h at 37° C., the medium was removed and the cells sticking to the filter were fixed in pure methanol and stained with Giemsa stain. The cells that had migrated through the filter were counted.
The effects of HRG, HRGPro and HRGSer on migration of G10 and HEE cells were examined by using a Boyden chamber.

[2] = system: Human endometrial endothelial (HEE) cells; assay: Chemotaxis (migration) assay in modified Boyden chamber, HEE cells; assay type: cell-based; settings: VEGF 10 ng/ml; for inhibition of VEGF-induced migration of HEE cells: 100 ng/ml in lower chamber, 4-6 h at 37° C.
Experimental: By using a proliferation and a migration (chemotaxis) assay the importance of HRG as well as HRG peptides was analyzed. The peptides used correspond to a fragment of full-length HRG containing 35 amino acids covering position 204 in the protein; the proline of native HRG in that specific position is changed to serine. The amino acid sequences are: […] NO: 7, named HRGPro herein) and […] NO: 8, named […] herein); the peptides were produced and purchased from Innovagen, Lund, Sweden. The assay was performed in a modified Boyden chamber using micropore nitrocellulose filters (8 μm thick, 8 μm pore) coated with type-1 collagen solution at 100 μg/ml (Vitrogen 100, Collagen Corp.). Cells (G10 and HEEC cells) were trypsinized and resuspended at a concentration of 5.5×10^5 cells/ml in serum-free culture medium containing 0.25% fetal calf serum (FCS). […] After 4-6 h at 37° C., the medium was removed and the cells sticking to the filter were fixed in pure methanol and stained with Giemsa stain. The cells that had migrated through the filter were counted. The effects of HRG, HRGPro and […] on migration of G10 and HEE cells were examined by using a Boyden chamber.

[3] = system: Human endometrial endothelial (HEE) cells; assay: Cell proliferation assay, HEE cells; assay type: cell-based; settings: 100 ng/ml; starvation medium with 0.25% FCS; cell numbers scored after 5 days
Experimental: (§1) By using a proliferation and a migration (chemotaxis) assay the importance of HRG as well as HRG peptides was analyzed. The peptides used correspond to a fragment of full-length HRG containing 35 amino acids covering position 204 in the protein; the proline of native HRG in that specific position is changed to serine. The amino acid sequences are: […] NO: 7, named HRGPro herein) and […] NO: 8, named […] herein); the peptides were produced and purchased from Innovagen, Lund, Sweden. Cells (G10 and HEEC) in culture medium supplemented with 10% FCS were seeded into 24-well dishes. After 2 h the medium was changed to starvation medium (culture medium containing 0.25% FCS) and the incubation continued for an additional 24 h. The medium was changed again at day 2 and day 4 (starvation medium), and at the same time FGF-2 or VEGF, HRG or HRG Pro or Ser containing peptide were added. As a control, cells were cultured in basal culture medium supplemented with 10% FCS. Cell numbers were scored after 5 days. Human endometrial endothelial (HEE) cells were cultured in starvation medium containing culture medium (3 H) supplemented with 0.25% FCS.

[4] = system: G10 cells (Porcine aortic endothelial cells); settings: 100 ng/ml; starvation medium (Ham's F12, 0.25% FCS); cell numbers scored after 5 days
Experimental: as §1, with “G10 cells (Porcine aortic” for “Human endometrial”, “cells)” for “(HEE) cells”, “(Ham's F12)” for “(3 H)”

Molecule	inhibition of VEGF-induced migration of G10 cells [1]	inhibition of VEGF-induced migration of HEE cells [2]	increase in number of HEE cells compared with culture in starvation medium [3] [%]	induction of migration of G10 cells ([1]; FGF 20 ng/ml)	induction of migration of HEE cells [2]	inhibition of proliferation of G10 cells (decrease compared with culture in starvation medium) [4] [%]
CC(C)[C@H](NC(=O)[C@H](CC(N)=O)NC(=O)[C@@H]1CCCN1C(=O)[C@H](Cc1c[nH]cn1)NC(=O)[C@H](CCCNC(=N)N)NC(=O)[C@@H]1CCCN1C(=O)[C@H](Cc1ccccc1)NC(=O)[C@H](Cc1c[nH]cn1)NC(=O)[C@H](Cc1c[nH]cn1)NC(=O)[C@H](CCCNC(=N)N)NC(=O)[C@@H]1CCCN1C(=O)[C@H](CS)NC(=O)[C@H](CC(N)=O)NC(=O)[C@H](CCCNC(=N)N)NC(=O)[C@@H](NC(=O)[C@H](CO)NC(=O)[C@H](Cc1ccccc1)NC(=O)[C@H](CC(=O)O)NC(=O)[C@@H](NC(=O)[C@H](Cc1ccccc1)NC(=O)[C@H](Cc1ccc(O)cc1)NC(=O)CNC(=O)[C@@H](NC(=O)CNC(=O)[C@H](CCC(=O)O)NC(=O)CNC(=O)CNC(=O)[C@@H](N)CCCNC(=N)N)[C@@H](C)O)C(C)C)C(C)C)C(=O)N[C@@H](Cc1ccccc1)C(=O)NCC(=O)N[C@@H](Cc1ccccc1)C(=O)N[C@@H](CS)C(=O)N[C@@H](CCCNC(=N)N)C(=O)N[C@@H](C)C(=O)N[C@@H](CC(=O)O)C(=O)O [HRGPro] (H-RGGEGTGYFVDFSVRNCPRHHFPRHPNVFGFCRAD-OH; N-terminus and C-terminus assumed)	A tendency	A tendency	13	–	–	–
CC(C)[C@H](NC(=O)[C@H](CC(N)=O)NC(=O)[C@@H]1CCCN1C(=O)[C@H](Cc1c[nH]cn1)NC(=O)[C@H](CCCNC(=N)N)NC(=O)[C@@H]1CCCN1C(=O)[C@H](Cc1ccccc1)NC(=O)[C@H](Cc1c[nH]cn1)NC(=O)[C@H](Cc1c[nH]cn1)NC(=O)[C@H](CCCNC(=N)N)NC(=O)[C@H](CO)NC(=O)[C@H](CS)NC(=O)[C@H](CC(N)=O)NC(=O)[C@H](CCCNC(=N)N)NC(=O)[C@@H](NC(=O)[C@H](CO)NC(=O)[C@H](Cc1ccccc1)NC(=O)[C@H](CC(=O)O)NC(=O)[C@@H](NC(=O)[C@H](Cc1ccccc1)NC(=O)[C@H](Cc1ccc(O)cc1)NC(=O)CNC(=O)[C@@H](NC(=O)CNC(=O)[C@H](CCC(=O)O)NC(=O)CNC(=O)CNC(=O)[C@@H](N)CCCNC(=N)N)[C@@H](C)O)C(C)C)C(C)C)C(=O)N[C@@H](Cc1ccccc1)C(=O)NCC(=O)N[C@@H](Cc1ccccc1)C(=O)N[C@@H](CS)C(=O)N[C@@H](CCCNC(=N)N)C(=O)N[C@@H](C)C(=O)N[C@@H](CC(=O)O)C(=O)O [HRGSer] (H-RGGEGTGYFVDFSVRNCSRHHFPRHPNVFGFCRAD-OH; N-terminus and C-terminus assumed)	inhibited significantly	inhibited significantly	86	–	–	–
FGF: Fibroblast Growth Factor, used to induce migration of G10 cells [reference compound]	–	–	–	induced migration	–	–
VEGF [reference compound]	–	–	–	–	induced migration	–
Histidine-rich glycoprotein (protein) VSPTDCSAVEPEAEKALDLINKRRRDGYLFQLLRIADAHLDRVENTTVYYLVLDVQESDCSVLSRKYWNDCEPPDSRRPSEIVIGQCKVIATRHSHESQDLRVIDFNCTTSSVSSALANTKDSPVLIDFFEDTERYRKQANKALEKYKEENDDFASFRVDRIERVARVRGGEGTGYFVDFSVRNCPRHHFPRHPNVFGFCRADLFYDVEALDLESPKNLVINCEVFDPQEHENINGVPPHLGHPFHWGGHERSSTTKPPFKPHGSRDHHHPHKPHEHGPPPPPDERDHSHGPPLPQGPPPLLPMSCSSCQHATFGTNGAQRHSHNNNSSDLHPHKHHSHEQHPHGHHPHAHHPHEHDTHRQHPHGHHPHGHHPHGHHPHGHHPHGHHPHCHDFQDYGPCDPPPHNQGHCCHGHGPPPGHLRRRGPGKGPRPFHCRQIGSVYRLPPLRKGEVLPLPEANFPSFPLPHHKHPLKPDNQPFPQSVSESCPGKFKSGFPQVSMFFTHTFPK	A tendency	A tendency	6	–	–	24
